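Where inhibition never reached the appropriate level, the endpoint shown equals the highest concentration tested. Otherwise, values were interpolated linearly from a five-concentration, 48-hour dose response in 96-well plates. At the GI50, growth is halved. TGI denotes the concentration required for complete inhibition of growth.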
Experiments:
Experiment in all cases: growth of human tumour cells (NCI), 48 h
SNB-75 CNS = system: SNB-75 CNS
M14 melanoma = system: M14 melanoma
RXF 393 renal = system: RXF 393 renal
UACC-257 melanoma = system: UACC-257 melanoma
NCI-H522 lung = system: NCI-H522 lung
SK-MEL-2 melanoma = system: SK-MEL-2 melanoma
COLO 205 colon = system: COLO 205 colon
SK-MEL-5 melanoma = system: SK-MEL-5 melanoma
SNB-19 CNS = system: SNB-19 CNS
HL-60(TB) leukemia = system: HL-60(TB) leukemia

SMILES | GI50 (SNB-75 CNS) [nM] | TGI (SNB-75 CNS) [nM] | GI50 (M14 melanoma) [nM] | TGI (M14 melanoma) [nM] | GI50 (RXF 393 renal) [nM] | TGI (RXF 393 renal) [nM] | GI50 (UACC-257 melanoma) [nM] | TGI (UACC-257 melanoma) [nM] | GI50 (NCI-H522 lung) [nM] | TGI (NCI-H522 lung) [nM] | GI50 (SK-MEL-2 melanoma) [nM] | TGI (SK-MEL-2 melanoma) [nM] | GI50 (COLO 205 colon) [nM] | TGI (COLO 205 colon) [nM] | GI50 (SK-MEL-5 melanoma) [nM] | TGI (SK-MEL-5 melanoma) [nM] | GI50 (SNB-19 CNS) [nM] | TGI (SNB-19 CNS) [nM] | GI50 (HL-60(TB) leukemia) [nM] | TGI (HL-60(TB) leukemia) [nM]
COc1cc(OC)c(C(=O)/C=C/c2cccc(C(F)(F)F)c2)c(OC)c1 | 1880 | 7900 | 1060 | 2620 | 1030 | 2240 | 2060 | 7890 | 857 | 1940 | 1220 | 3370 | 1060 | 2210 | 1070 | 2540 | 1440 | 4670 | – | –
C=C1C(=O)O[C@H]2[C@H]1CC/C(COC(=O)NCCCCNC(=O)OC/C1=C/CC[C@@]3(C)O[C@H]3[C@H]3OC(=O)C(=C)[C@@H]3CC1)=C\CC[C@@]1(C)O[C@@H]21 | 2190 | 16500 | 1970 | 4820 | 1440 | 3360 | 1680 | 4990 | 167 | 375 | 1770 | 4890 | 466 | 1800 | 3330 | 11800 | – | – | 256 | 1080
O=C(CC(=O)n1nc(-c2ccccc2)c(N=Nc2ccc(Cl)cc2)c1-c1ccccc1)Nc1ccc(Cl)cc1 | – | > 100000 | – | > 100000 | – | – | – | > 100000 | – | > 100000 | – | > 100000 | – | > 63900 | – | > 100000 | – | > 100000 | – | > 100000
[N-]=[N+]=C1C(=O)NN=C1c1ccccc1 | – | > 100000 | – | > 100000 | – | > 100000 | – | > 100000 | – | > 100000 | – | > 100000 | – | > 100000 | – | – | – | – | – | > 100000

Reference: PubChem BioAssay (NCI)
